Key:
[1] = test system: p-eNOS; format: cell-based
[2] = test system: CSE; format: cell-based
[3] = test system: C-reactive protein (CRP); assay: Single COVID-19 case study: CRP levels; conditions: single COVID-19 subject, following remdesivir for 5 days; 1.35 and 1.77 mg/dL during infection; normal range 0.3-1.0 mg/dL
[4] = test system: sulfide; assay: Single COVID-19 case study: plasma sulfide (monobromobimane method); format: in vivo, human; conditions: single COVID-19 subject, 14 days post-treatment
[5] = test system: Total NO; assay: Single COVID-19 case study: plasma total NO (ozone-based chemiluminescence); conditions: single COVID-19 subject, 280 nM during infection, 400 nM baseline

SMILES	restoration of p-eNOS protein expression [1]	restoration of CSE protein expression [2]	CRP level [3]	sulfide level [4]	Total NO level ([5]; 5 days post-treatment)	Total NO level ([5]; 14 days post-treatment)
C=CCSSSCC=C [DATS, diallyl trisulfide]	two-fold	two-fold				
CCC(CC)COC(=O)[C@H](C)N[P@](=O)(OC[C@H]1O[C@@](C#N)(c2ccc3c(N)ncnn23)[C@H](O)[C@@H]1O)Oc1ccccc1 [remdesivir]			0.78 mg/dL	1.447 µM	200 nM	280 nM

— US20220273702A1, “HYDROGEN SULFIDE AND NITRIC OXIDE THERAPY FOR COVID-19 INFECTION” (Board of Supervisors of Louisiana State University and …, priority 2021, published 2022)
